The target of data set [1] is T1, cathepsin B-like cysteine peptidase (DCcathB) (Diaphorina citri, UniProt A0A0U4DX43).
T1 construct: mature peptide residues 70 to 374
T1 sequence (A0A0U4DX43 70-374): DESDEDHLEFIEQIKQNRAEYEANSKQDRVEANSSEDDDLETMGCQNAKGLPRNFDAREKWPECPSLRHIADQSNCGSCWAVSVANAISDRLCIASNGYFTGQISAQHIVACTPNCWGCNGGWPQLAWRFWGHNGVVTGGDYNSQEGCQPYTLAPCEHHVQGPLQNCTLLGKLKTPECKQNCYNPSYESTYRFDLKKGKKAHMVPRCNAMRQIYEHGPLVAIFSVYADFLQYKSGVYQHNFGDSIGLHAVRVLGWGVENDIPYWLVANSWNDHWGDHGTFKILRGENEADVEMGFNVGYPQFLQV
In words: fluorogenic inhibition assay, Z-F-R-AMC substrate, purified recombinant enzyme. It counts as biochemical.

Substrate in data set [2]: Cc1cc(=O)oc2cc(NC(=O)[C@H](CCCNC(=N)N)NC(=O)[C@H](CCCNC(=N)N)NC(=O)OCc3ccccc3)ccc12
In words: fluorogenic substrate hydrolysis, Km, purified recombinant enzyme. Format: biochemical, Diaphorina citri.

Substrate in data set [3]: Cc1cc(=O)oc2cc(NC(=O)[C@H](CCCNC(=N)N)NC(=O)[C@H](Cc3ccccc3)NC(=O)OCc3ccccc3)ccc12
The description is as above. It counts as biochemical, Diaphorina citri.

One may read the IC50 as the concentration that inhibits the measured activity by half. On to `CCCNC(=O)[C@H]1O[C@@H]1C(=O)N[C@H](C(=O)N1CCC[C@H]1C(=O)O)[C@@H](C)CC` [CA-074, N-(l-3-trans-propylcarbamoyloxirane-2-carbonyl)-L-isoleucyl-L-proline], for which, in data set [1], the IC50 is 0.095 nM. On the same count and under the same terms, the value for `CC(C)C[C@H](NC(=O)[C@H]1O[C@@H]1C(=O)O)C(=O)NCCCCN=C(N)N` [E-64, L-trans-Epoxysuccinyl-leucylamido(4-guanidino)butane] was 14 nM.

B1: cathepsin B-like cysteine peptidase (DCcathB) (Diaphorina citri) (protein)
chain: DESDEDHLEFIEQIKQNRAEYEANSKQDRVEANSSEDDDLETMGCQNAKGLPRNFDAREKWPECPSLRHIADQSNCGSCWAVSVANAISDRLCIASNGYFTGQISAQHIVACTPNCWGCNGGWPQLAWRFWGHNGVVTGGDYNSQEGCQPYTLAPCEHHVQGPLQNCTLLGKLKTPECKQNCYNPSYESTYRFDLKKGKKAHMVPRCNAMRQIYEHGPLVAIFSVYADFLQYKSGVYQHNFGDSIGLHAVRVLGWGVENDIPYWLVANSWNDHWGDHGTFKILRGENEADVEMGFNVGYPQFLQV
notes: mature peptide residues 70 to 374
As a reminder, the Km is the substrate concentration at which the rate is half of its maximum. As to B1, the Km in data set [2] stood at 6.13 µM; in data set [3], 23.5 µM.

The record behind these values is PMC4696824 (PLoS ONE, 2015).
